How the values were obtained:
[1] = system: human SMN protein; assay: Western blot of SMN protein in SMA patient fibroblasts (3813); format: cell-based; details: SMA patient cells (3813), 0.1-10 μM, FIG. 2
Procedure: Type I spinal muscular atrophy (SMA)-affected human primary fibroblasts (#GM03813) and carrier parents (#GM03814, parent and #GM03815, […]) are obtained live with low passage number from Coriell Cell Repositories. […] For detection of SMN protein in patient fibroblasts, 8,000 cells per cm^2 are plated 24 hours prior to drug addition. Fresh media and compound are added every 24 hours. After 72 hours, cells are harvested, washed with cold PBS, and lysed. Samples are subjected to polyacrylamide gel electrophoresis (PAGE). It is determined that 10 μg total protein per lane is within the linear range for immunoblot detection of SMN and alpha-tubulin. Western blots of the gel are probed for SMN with the 4B7 mouse monoclonal antibody (from the lab of Christian Lorson). A goat anti-mouse antibody (Santa Cruz Biotechnology/#sc-2005) conjugated to horseradish peroxidase (HRP) is used as the secondary antibody. Quantification of protein is performed by detecting chemiluminescence with a Fujifilm LAS-4000 Multifunctional Imaging System. […] We incubated a fibroblast cell line from a type I SMA patient (3813 cell line) with different doses of analogues and assessed the SMN protein level by quantitative western blotting (FIG. 4). We observed that analogue 8 m at concentration of 37 nanomolar increased the SMN protein level by 2-3 fold. […] This could be due with the intrinsic mechanism of action or to other causes, such us concentration dependent compound solubility.

[2] = system: SMN2-luciferase reporter; assay: SMN2-luciferase reporter qHTS assay; format: cell-based, human; details: SMN2-luc reporter, FIG. 1
How it was run: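 SMN2 exon-7 splicing firefly-luciferase reporter cell line, ~2000 cells/well in phenol-red-free DMEM with 10% serum, allowed to adhere 10–12 h, then exposed to compounds for 2 days at 37 C, 5% CO2. Seven-point five-fold dilution series (e.g. 50 μM to 3.2 nM), OneGlo luminescence read, curves fitted to Hill equation.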

[3] = system: SMN1-luciferase reporter; assay: SMN1-luciferase reporter control cell line; format: cell-based, human; details: SMN1-luc reporter, FIG. 1
Excerpt: A cell-based quantitative high throughput screening (qHTS) assay is used to identify compounds able to increase SMN production. The assay uses a SMN2-luciferase reporter to determine if exon 7 of the SMN gene is expressed, which correlates with increased full-length SMN production from the SMN2 gene. As controls, a homologue SMN1-luciferase reporter cell line looks for variations in expression of the SMN1 gene and a cell line with just the luciferase reporter looks at the capacity of the compounds to inhibit luciferase. In addition, increments in SMN production by lead compounds were confirmed by Western-Blot analysis using SMA patient fibroblasts.
The SMN reporters used herein are modified from those previously described (M. L. Zhang, C. L. Lorson, E. J. Androphy and J. Zhou, An in vivo reporter system for measuring increased inclusion of exon 7 in SMN2 mRNA: potential therapy of SMA, Gene Ther 8 (2001), pp. 1532-1538.)
The sequence of the SMN1 reporter vector used herein is given in SEQ ID NO.:1, while that of the SMN2 reporter vector is given in SEQ ID NO.:2. […]

With `COc1nc(-c2ccccc2)nnc1-c1ccccc1` [MLS000763654] the “SMN protein by Western blot (in words)” value [1] was “concentration-dependent increase in SMN protein”, the “expression of SMN2 / levels of the full length SMN2 gene (in words)” value [2] was “increases the expression of SMN2” and the “expression of SMN1 (in words)” value [3] was “reduces the expression of SMN1”.

From patent US20130096160A1, “ARYLTHIAZOLYL PIPERIDINES AND RELATED COMPOUNDS AS MODULATORS OF SURVIVAL MOTOR NEURON (SMN) PROTEIN PRODUCTION” (Secretary, Department of Health and Human Services, priority 2010, published 2013)
